Test system: 5′-[32P]-labeled templates or 5′-TAMRA-labeled templates
Experiment: Photostability assay (primer extension after 405 nm excitation radiation)
Assay type: biochemical
Settings: after 30 seconds of exposure at 50 W/cm2, 405 nm
Text: The photostability of an exemplary reference polymerase comprising a His-tagged version of Phi-29 polymerase (“HP1; see, e.g., U.S. Provisional Application No. 61/184,770, filed Jun. 5, 2009 for disclosure of HP1 sequence and purification) comprising the amino acid sequence of SEQ ID NO: 20, and an exemplary modified polymerase comprising the amino acid sequence of SEQ ID NO: 19 and further comprising the amino acid substitution D175A were characterized by measuring the amount of primer extension observed in each sample prior to and following exposure to excitation radiation at 405 nm Reactions (100 μL) containing 50 mM Tris, pH 7.5, 50 mM NaCl, 1 mM DTT, 2 mM MnCl2, 0.3% BSA, 10-200 nM polymerase and 100 nM nanoparticles (or premade polymerase-nanoparticle conjugates; see, e.g., U.S. Provisional Application No. 61/184,770 filed Jun. 5, 2009), and 100 nM 5′-[^32P]-labeled templates or 5′-TAMRA-labeled templates were prepared with and without the Oxygen Scavenging System (OSS). […] Polymerase activity was quantified as the % of extended primer (as compared to the total starting amount of primer), as measured by densitometric analysis. Phototoxicity is quantified by measuring the percent decrease in polymerase activity that occurs when samples are illuminated compared to non-illuminated samples. The photostability is quantified by subtracting the observed photosensitivity from 100.

Question: How did the “% activity retained” value turn out when “HP1: Phi-29 polymerase lacking exonuclease activity with N-terminal His-tag, linker, D12A and D66A mutations [reference compound]” was run?
Answer: less than 40%

Source: patent US10093973B2, “Polymerase compositions and methods” (LIFE TECHNOLOGIES CORPORATION, priority 2009, dated 2018)
